Assay results from ChEMBL document CHEMBL1143084, “Synthesis and structure based optimization of novel Akt inhibitors” (Bioorg Med Chem Lett, 2008).

molecular target: T1, RAC-alpha serine/threonine-protein kinase (Homo sapiens, UniProt P31749); assay: Inhibition of AKT1 in human U87 cells after 2 hrs by ELISA; assay type: cell-based, U-87MG ATCC; conditions: not given
T1 sequence (P31749 whole entry): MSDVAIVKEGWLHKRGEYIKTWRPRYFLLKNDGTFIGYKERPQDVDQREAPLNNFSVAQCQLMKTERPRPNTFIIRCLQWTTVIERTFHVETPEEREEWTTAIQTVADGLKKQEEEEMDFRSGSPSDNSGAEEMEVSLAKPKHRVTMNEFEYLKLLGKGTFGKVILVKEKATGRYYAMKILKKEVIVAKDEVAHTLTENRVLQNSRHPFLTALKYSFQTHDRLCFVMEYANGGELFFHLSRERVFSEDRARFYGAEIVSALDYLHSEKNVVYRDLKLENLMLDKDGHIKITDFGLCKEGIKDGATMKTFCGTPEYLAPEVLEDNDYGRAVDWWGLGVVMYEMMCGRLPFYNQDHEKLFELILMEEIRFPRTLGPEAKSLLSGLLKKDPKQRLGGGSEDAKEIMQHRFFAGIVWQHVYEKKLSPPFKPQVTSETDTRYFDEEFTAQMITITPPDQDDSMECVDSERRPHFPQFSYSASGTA

| Structure (SMILES) | IC50 |
| --- | --- |
| Clc1c[nH]c2ncnc(N3CC4(CCNCC4)c4ccccc43)c12 | 64 nM |
| CN1CCC2(CC1)CN(c1ncnc3[nH]ccc13)c1ccccc12 | 136 nM |
| Clc1ccc2c(c1)C1(CCNCC1)CN2c1ncnc2[nH]ccc12 | 51 nM |
| c1ccc2c(c1)N(c1ncnc3[nH]ccc13)CC21CCNCC1 | 96 nM |
| N#Cc1c[nH]c2ncnc(N3CC4(CCNCC4)c4ccccc43)c12 | 50 nM |
| Fc1ccc2c(c1)C1(CCNCC1)CN2c1ncnc2[nH]ccc12 | 75 nM |
| Cc1c[nH]c2ncnc(N3CC4(CCNCC4)c4ccccc43)c12 | 122 nM |

system: not listed separately; assay: Inhibition of PKA; conditions: not given

| Structure (SMILES) | IC50 |
| --- | --- |
| N#Cc1c[nH]c2ncnc(N3CC4(CCNCC4)c4ccccc43)c12 | 3.6 nM |

molecular target: T1, RAC-alpha serine/threonine-protein kinase; assay: Inhibition of AKT1; conditions: not given

| Structure (SMILES) | IC50 |
| --- | --- |
| Clc1c[nH]c2ncnc(N3CC4(CCNCC4)c4ccccc43)c12 | 5.8 nM |
| CN1CCC2(CC1)CN(c1ncnc3[nH]ccc13)c1ccccc12 | 12.7 nM |
| c1nc(N2CCc3nc[nH]c3C2)c2cc[nH]c2n1 | 294 nM |
| c1ccc(Cc2c[nH]c3ncnc(N4CC5(CCNCC5)c5ccccc54)c23)cc1 | 1330 nM |
| CS(=O)(=O)N1CCC2(CC1)CN(c1ncnc3[nH]ccc13)c1ccc(F)cc12 | 3190 nM |
| CC(=O)N1CCC2(CC1)CN(c1ncnc3[nH]ccc13)c1ccc(F)cc12 | 2790 nM |
| Clc1c[nH]c2ncnc(Nc3ccccc3-c3nnc[nH]3)c12 | 318 nM |
| Clc1ccc2c(c1)C1(CCNCC1)CN2c1ncnc2[nH]ccc12 | 4.8 nM |
| c1ccc2c(c1)N(c1ncnc3[nH]ccc13)CC21CCNCC1 | 5.3 nM |
| N#Cc1c[nH]c2ncnc(N3CC4(CCNCC4)c4ccccc43)c12 | 2.4 nM |
| Fc1ccc2c(c1)C1(CCNCC1)CN2c1ncnc2[nH]ccc12 | 3.1 nM |
| Cc1nnc(-c2ccc(Cl)cc2Nc2ncnc3[nH]ccc23)[nH]1 | > 10000 nM |
| c1ccc(-c2nnc[nH]2)c(Nc2ncnc3[nH]ccc23)c1 | 210 nM |
| Cc1nnc(-c2cc(Cl)ccc2Nc2ncnc3[nH]ccc23)[nH]1 | 171 nM |
| Cn1ccc2c(Nc3ccccc3-c3nnc[nH]3)ncnc21 | > 10000 nM |
| Cc1c[nH]c2ncnc(Nc3ccccc3-c3nnc[nH]3)c12 | 425 nM |
| Cc1c[nH]c2ncnc(N3CC4(CCNCC4)c4ccccc43)c12 | 4.8 nM |

system: not listed separately; assay: Antitumor activity against human myristoylated Akt1-activated rat Rat-1a cells xenografted mouse assessed as tumor growth inhibition at 50 mg/kg, qd, po for 10 days; assay type: functional; conditions: 240 h

| Structure (SMILES) | inhibition in vivo at 50 mg/kg |
| --- | --- |
| N#Cc1c[nH]c2ncnc(N3CC4(CCNCC4)c4ccccc43)c12 | 68% |
